Experimental findings from PubChem BioAssay (NCI) are described below.

Test systems include HS 578T breast; TK-10 renal; HOP-92 NSCLC; NCI-H460 lung; SNB-75 CNS; SK-MEL-5 melanoma; OVCAR-4 ovarian; RXF 393 renal; HCT-15 colon; SF-268 CNS; T-47D breast; MALME-3M melanoma; HT29 colon.
Common to all, as to experiment: NCI tumour cell line growth inhibition, 48 h

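Results reflect a 48-hour exposure of cells in 96-well plates to compound at five concentrations. At the GI50, growth is halved. TGI: total growth inhibition.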

In the case of `O=C1C=CC[C@H](/C=C/C[C@@H](O)C[C@H](O)/C=C/c2ccccc2)O1`, the TGI is 60.2 µM in the assay on HS 578T breast; 24 µM in the assay on TK-10 renal; 13.7 µM with HOP-92 NSCLC; 35.3 µM in the assay with NCI-H460 lung; 26.4 µM in the assay with SNB-75 CNS; 27.4 µM in the assay on SK-MEL-5 melanoma. Also, the TGI came out at 28.4 µM in the assay on OVCAR-4 ovarian; 22.1 µM in the assay with RXF 393 renal; 23 µM in the assay with HCT-15 colon; 37.7 µM in the assay with SF-268 CNS; 33.3 µM in the assay with T-47D breast; 28.6 µM in the assay on MALME-3M melanoma. The same compound had a TGI in the assay with HT29 colon of 23.5 µM.
On to `CC(=O)O[C@H]1CC[C@H]2[C@@H]3CCC4=C(C(=O)C=CC4(C)OC(C)=O)[C@H]3CC[C@]12C` (stereo partly specified), for which the TGI in the assay on HS 578T breast, in the assay with TK-10 renal, in the assay with HOP-92 NSCLC, in the assay with NCI-H460 lung, in the assay on SNB-75 CNS and in the assay on SK-MEL-5 melanoma was > 100 µM throughout. The TGI with OVCAR-4 ovarian was > 100 µM; in the assay on RXF 393 renal, 92.1 µM; in the assay on HCT-15 colon it was > 100 µM; with SF-268 CNS, > 100 µM; in the assay on T-47D breast, > 100 µM; in the assay with MALME-3M melanoma, > 100 µM. Moreover, the TGI with HT29 colon was > 100 µM.
For `O=C(Nc1nncs1)NS(=O)(=O)n1cnc2ccccc21`, the TGI in the assay with HS 578T breast, with TK-10 renal, with HOP-92 NSCLC, with NCI-H460 lung, in the assay with SNB-75 CNS and with SK-MEL-5 melanoma was > 100 µM throughout. Besides, the TGI in the assay with OVCAR-4 ovarian, in the assay with RXF 393 renal, in the assay on HCT-15 colon, in the assay on SF-268 CNS, in the assay with T-47D breast and with MALME-3M melanoma was > 100 µM throughout. For the same compound, in the assay with HT29 colon, the TGI is > 100 µM.
For `NC1=NN(c2ccccc2)C2(c3ccncc3C(=O)O)C1C(N)=NN2c1ccccc1` (stereo unspecified), the TGI in the assay with HS 578T breast, in the assay with HOP-92 NSCLC, in the assay on NCI-H460 lung, in the assay on SNB-75 CNS, with SK-MEL-5 melanoma and with OVCAR-4 ovarian was > 100 µM each time. Further, the TGI in the assay with RXF 393 renal, in the assay with HCT-15 colon, in the assay with SF-268 CNS, in the assay with T-47D breast, with MALME-3M melanoma and in the assay with HT29 colon was > 100 µM throughout.
On to `CC(=O)[O-].[Ni].c1ccc(/C(=N\Nc2ccccn2)c2ccccn2)cc1`, for which the TGI in the assay with HS 578T breast was > 100 µM; in the assay on TK-10 renal, 20.7 µM; with HOP-92 NSCLC, 22.3 µM; in the assay with NCI-H460 lung, 28 µM; in the assay on SNB-75 CNS, 46.1 µM; with SK-MEL-5 melanoma, 18.3 µM. In addition, the TGI with OVCAR-4 ovarian was > 59.7 µM; in the assay on RXF 393 renal, 30 µM; with HCT-15 colon, 41.1 µM; with SF-268 CNS, 30.1 µM; in the assay with T-47D breast it was 15.6 µM; in the assay on MALME-3M melanoma, 20.9 µM. This compound showed a TGI with HT29 colon of 23.8 µM. In the assay with HT29 colon, the GI50 is 0.056 µM.
For `Cc1ccc(S(=O)C[C@@]2(C(F)F)NC(=O)NC2=O)cc1` (stereo partly specified), the TGI in the assay on HS 578T breast, with TK-10 renal, in the assay on HOP-92 NSCLC, in the assay on NCI-H460 lung, in the assay on SNB-75 CNS and in the assay on SK-MEL-5 melanoma was > 100 µM throughout. For the same compound, the TGI in the assay on OVCAR-4 ovarian, in the assay on RXF 393 renal, with HCT-15 colon, in the assay with SF-268 CNS, in the assay on T-47D breast and in the assay with MALME-3M melanoma was > 100 µM each time. For the same compound, in the assay on HT29 colon, the TGI is > 100 µM.
In the case of `COc1cc(-c2c3c([nH]c(=O)c2C#N)-c2cc([N+](=O)[O-])ccc2CCC3)cc(OC)c1OC`, the TGI in the assay with HS 578T breast is 73.3 µM; in the assay on TK-10 renal, > 100 µM; in the assay on HOP-92 NSCLC, > 100 µM; with NCI-H460 lung, 67 µM; in the assay with SNB-75 CNS it was 62.6 µM; in the assay with SK-MEL-5 melanoma, 26.7 µM. Besides, the TGI in the assay on OVCAR-4 ovarian was > 100 µM; in the assay with RXF 393 renal, 82.8 µM; in the assay on HCT-15 colon, > 100 µM; in the assay on SF-268 CNS, > 100 µM; in the assay with T-47D breast, > 100 µM; in the assay with MALME-3M melanoma, 73.9 µM. In the assay on HT29 colon, the TGI was > 100 µM.
Take `CC(=O)Nc1ccc(S(=O)(=O)[N-]C2C(=O)c3ccccc3C(=O)C2[n+]2ccccc2)cc1` (stereo unspecified): the TGI was 62.4 µM in the assay on HS 578T breast; > 100 µM in the assay on TK-10 renal; 33.6 µM with HOP-92 NSCLC; 86.3 µM in the assay on NCI-H460 lung; 30.1 µM with SNB-75 CNS; 15.3 µM with SK-MEL-5 melanoma. Also, the TGI is 28.9 µM in the assay on OVCAR-4 ovarian; 30.4 µM in the assay on RXF 393 renal; > 100 µM in the assay with HCT-15 colon; 35.5 µM in the assay on SF-268 CNS; > 100 µM in the assay with T-47D breast; 25.1 µM with MALME-3M melanoma. The TGI with HT29 colon is > 100 µM.
Turning to `O=C(N/N=C/C=C/c1ccc([N+](=O)[O-])o1)c1ccc(Br)s1`, the TGI was 31.7 µM in the assay on HS 578T breast; 46.5 µM with TK-10 renal; 25.7 µM with HOP-92 NSCLC; > 100 µM in the assay on NCI-H460 lung; > 100 µM in the assay with SNB-75 CNS; 46.1 µM in the assay with SK-MEL-5 melanoma. Besides, the TGI worked out at 40.2 µM with OVCAR-4 ovarian; 30.9 µM in the assay on RXF 393 renal; 35.7 µM in the assay with HCT-15 colon; 98.4 µM in the assay with SF-268 CNS; 65.5 µM in the assay with T-47D breast; 37.9 µM in the assay on MALME-3M melanoma. The same compound came in with a TGI in the assay on HT29 colon of 34.2 µM.
Regarding `CCOC(=O)NC(NNc1ccc([N+](=O)[O-])cc1[N+](=O)[O-])(C(F)(F)F)C(F)(F)F`, the TGI with HS 578T breast was > 100 µM; with TK-10 renal, 96 µM; in the assay on HOP-92 NSCLC, 47.3 µM; in the assay with NCI-H460 lung it was > 100 µM; in the assay with SNB-75 CNS it was > 100 µM; with SK-MEL-5 melanoma, > 100 µM. Also, the TGI in the assay on RXF 393 renal, in the assay with HCT-15 colon, in the assay on SF-268 CNS, with T-47D breast, with MALME-3M melanoma and in the assay on HT29 colon was > 100 µM each time.
For `COc1cc(C2c3[nH]c4ccc(F)cc4c3C[C@H]3COC(=O)N23)cc(OC)c1O` (stereo partly specified), the TGI in the assay on HS 578T breast is 13 µM; in the assay on HOP-92 NSCLC it was > 100 µM; with NCI-H460 lung, 19.8 µM; in the assay on SNB-75 CNS it was 8.84 µM; with SK-MEL-5 melanoma, 34.7 µM; with OVCAR-4 ovarian, 79.7 µM. Besides, the TGI with RXF 393 renal was 19.1 µM; with HCT-15 colon, 25.2 µM; with SF-268 CNS it was 64.5 µM; in the assay with T-47D breast, > 100 µM; in the assay with MALME-3M melanoma, 55.7 µM; in the assay with HT29 colon, 26.8 µM.
